40 sequences from the OligoGym collection can be followed below.

For data set [1], the target named is SNHG14. The note with it: ASO.
The target in data set [2] is SOD1. The settings on record: ASO.
Where [3] appears, read: Mouse Primary Neuronal Cell, 0.005 µM.

After the bases stand the sugars from the 5' end (letter, count) and the backbone: PS all phosphorothioate, else s phosphorothioate and o phosphodiester by linkage. Methylation of C is not given here. e = 2'-O-(2-methoxyethyl) (MOE); l = locked nucleic acid (LNA); k = constrained ethyl (cEt); d = 2'-deoxy (DNA)

As to “AAAATCTCAACTACCATTT (sugars l3 d10 l6, PS)”, the target mRNA inhibition in data set [1] (Human Neuronal Cell, 7.5 µM) turned out to be 48%.

For the sequence “AAAATCTCAACTACCATTT (sugars l6 d9 l4, PS)”, the target mRNA inhibition in data set [1] (Human Neuronal Cell, 7.5 µM) was found to be 23%.

As to “AAAATCTCAACTACCATTT (sugars llddlldddddddlldlll, PS)”, the target mRNA inhibition in data set [1] (Human Neuronal Cell, 7.5 µM) came to 52%.

For the sequence “AAAATCTCAACTACCATTTT (sugars lddllldddddddldldlll, PS)”, the target mRNA inhibition in data set [1] (Human Neuronal Cell, 7.5 µM) came to 36%.

Regarding “AAAATCTCAACTACCATTTT (sugars llddllddddddddddldll, PS)”, the target mRNA inhibition in data set [1] (Human Neuronal Cell, 7.5 µM) was found to be 23%.

Turning to “AAAATTATTTATACACCATC (sugars l1 d2 l2 d9 l6, PS)”, the target mRNA inhibition in data set [1] (Human Neuronal Cell, 7.5 µM) is 56%.

Regarding “AAAATTATTTATACACCATC (sugars ldlllllddddddlldddll, PS)”, the target mRNA inhibition in data set [1] (Human Neuronal Cell, 7.5 µM) worked out at 61%.

Take “AAAATTATTTATACACCATC (sugars lllllllddddddldlddll, PS)”: in data set [1] (Human Neuronal Cell, 7.5 µM), the target mRNA inhibition turned out to be 49%.

In the case of “AAACTCTTGCATCTACT (sugars l2 d13 l2, PS)”, the target mRNA inhibition in data set [1] (Human Neuronal Cell, 0.2 µM) turned out to be 19%; in data set [1] (Human Neuronal Cell, 1 µM) it was 41%.

In the case of AAACTGTACACCTACT (sugars l2 d10 l4, PS), the target mRNA inhibition in data set [1] (Human Neuronal Cell, 0.2 µM) is 31%; in data set [1] (Human Neuronal Cell, 1 µM), 44%.

On to “AAAGATCATTCTCAACAA (sugars l5 d10 l3, PS)”, for which, in data set [1] (Human Neuronal Cell, 7.5 µM), the target mRNA inhibition stood at 64%.

Take AAATATTGCCACCATT (sugars l2 d10 l4, PS): the target mRNA inhibition in data set [1] (Human Neuronal Cell, 0.2 µM) came to 51%; in data set [1] (Human Neuronal Cell, 1 µM), 63%.

Regarding “AAATCTCAACTACCATTTTT (sugars ldlddldddddddllddlll, PS)”, the target mRNA inhibition in data set [1] (Human Neuronal Cell, 7.5 µM) was 29%.

With “AAATCTCAACTACCATTTTT (sugars ldllldddddddddddldll, PS)”, the target mRNA inhibition in data set [1] (Human Neuronal Cell, 7.5 µM) came out at 45%.

As to “AAATCTCAACTACCATTTTT (sugars llldldddddddddlldlll, PS)”, in data set [1] (Human Neuronal Cell, 7.5 µM), the target mRNA inhibition was -2%.

For “AAATCTCAACTACCATTTTT (sugars llldldlddddddddddlll, PS)”, the target mRNA inhibition in data set [1] (Human Neuronal Cell, 7.5 µM) was determined as 34%.

Regarding “AAATTTCCAAACCTTTC (sugars l2 d11 l4, PS)”, the target mRNA inhibition in data set [1] (Human Neuronal Cell, 0.2 µM) turned out to be 42%; in data set [1] (Human Neuronal Cell, 1 µM) it was 53%.

For the sequence “AAGATCATTCTCAACAAT (sugars lllldldddddddlldll, PS)”, the target mRNA inhibition in data set [1] (Human Neuronal Cell, 7.5 µM) stood at 19%.

For the sequence “AATTATTTATACACCATCAT (sugars lddddldddddddlldldll, PS)”, in data set [1] (Human Neuronal Cell, 7.5 µM), the target mRNA inhibition stood at 60%.

For the sequence “AATTATTTATACACCATCAT (sugars lldldlddddddddllldll, PS)”, the target mRNA inhibition in data set [1] (Human Neuronal Cell, 7.5 µM) amounted to 59%.

With “AATTTTTTTCTTACTATCTT (sugars l1 d12 l1 d2 l4, PS)”, the target mRNA inhibition in data set [1] (Human Neuronal Cell, 7.5 µM) was determined as 62%.

For “AATTTTTTTCTTACTATCTT (sugars ldlllldddddddlddddll, PS)”, the target mRNA inhibition in data set [1] (Human Neuronal Cell, 7.5 µM) amounted to 55%.

For the sequence “AATTTTTTTCTTACTATCTT (sugars llddlldddddddldlldll, PS)”, the target mRNA inhibition in data set [1] (Human Neuronal Cell, 7.5 µM) came out at 61%.

For the sequence “AATTTTTTTCTTACTATCTT (sugars lldldlddddddddlddlll, PS)”, the target mRNA inhibition in data set [1] (Human Neuronal Cell, 7.5 µM) was determined as 43%.

In the case of ACAACTTCTATCATAC (sugars l3 d10 l3, PS), the target mRNA inhibition in data set [1] (Human Neuronal Cell, 0.2 µM) was 44%; in data set [1] (Human Neuronal Cell, 1 µM), 55%.

As for ACACATCTTGTATACA (sugars l4 d10 l2, PS), the target mRNA inhibition in data set [1] (Human Neuronal Cell, 0.2 µM) was determined as 49%; in data set [1] (Human Neuronal Cell, 1 µM) it was 56%.

On to ACATCTCATACTTGCT (sugars l4 d10 l2, PS), for which the target mRNA inhibition in data set [1] (setting [3]) was determined as 94.8%.

For “ACATCTCATACTTGCTT (sugars l2 d13 l2, PS)”, the target mRNA inhibition was found to be 1% in data set [1] (Human Neuronal Cell, 0.2 µM); 8% in data set [1] (Human Neuronal Cell, 1 µM); 7% in data set [1] (Human Neuronal Cell, 5 µM); 90.7% in data set [1] (setting [3]).

Regarding ACATTATTAACCACCT (sugars l3 d10 l3, PS), the target mRNA inhibition in data set [1] (Human Neuronal Cell, 0.2 µM) was 62%; in data set [1] (Human Neuronal Cell, 1 µM) it was 64%.

For the sequence ACCACCTTAAGTAACA (sugars l4 d10 l2, PS), the target mRNA inhibition in data set [1] (Human Neuronal Cell, 0.2 µM) came out at 27%; in data set [1] (Human Neuronal Cell, 1 µM), 33%.

Regarding ACCTACATCTCATACT (sugars l4 d10 l2, PS), the target mRNA inhibition is 14% in data set [1] (Human Neuronal Cell, 0.2 µM); -14% in data set [1] (Human Neuronal Cell, 1 µM); 33% in data set [1] (Human Neuronal Cell, 5 µM); 93.8% in data set [1] (setting [3]).

Regarding “ACTCTGCAATACACCAA (sugars l4 d8 l1 d2 l2, PS)”, the target mRNA inhibition in data set [1] (Human Neuronal Cell, 7.5 µM) came to 57%.

Consider “ACTCTGCAATACACCAA (sugars lldllddddddllddll, PS)”, for which the target mRNA inhibition in data set [1] (Human Neuronal Cell, 7.5 µM) came out at 38%.

On to “ACTGTTTATACCCTTTC (sugars l1 d11 l1 d1 l3, PS)”, for which, in data set [1] (Human Neuronal Cell, 7.5 µM), the target mRNA inhibition worked out at 59%.

As to “TGGATTCTTTTAATAGCCTC (sugars e5 d10 e5, PS)”, the target mRNA inhibition in data set [2] (HepG2, 5 µM) worked out at 13%.

In the case of “TGGCAAAATACAGGTCA (sugars e2 k2 d9 k2 e2, PS)”, the target mRNA inhibition in data set [2] (HepG2, 5 µM) was found to be 43%.

Take “TGGGCGATCCCAATTAC (sugars e2 k2 d8 k2 e3, PS)”: the target mRNA inhibition in data set [2] (HepG2, 4 µM) amounted to 19%.

In the case of “TGGTCTCCTGAGAGTGAGAT (sugars e5 d10 e5, PS)”, in data set [2] (HepG2, 5 µM), the target mRNA inhibition was 24%.

In the case of “TGTGATTTAAGTCTGGC (sugars e2 k2 d8 k2 e3, PS)”, in data set [2] (HepG2, 5 µM), the target mRNA inhibition is 45%.

For the sequence “TGTGATTTAAGTCTGGCAAA (sugars e5 d10 e5, PS)”, in data set [2] (HepG2, 5 µM), the target mRNA inhibition was found to be 34%.
